Data taken from US10035797B2, “Fused amino pyridine as HSP90 inhibitors” (Curis, Inc., priority 2007, dated 2018).

Target: HSP90 (Homo sapiens (Human), UniProt P07900)
Test: HSP90 competition binding (fluorescence polarization) assay
Settings: FITC labeled GM, 24 hours at 4° C.
Description: (b) HSP90 Competition Binding (Fluorescence Polarization) Assay.
A fluorescein isothiocyanate (FITC) labeled GM was purchase from InvivoGen (ant-fgl-1). The interaction between HSP90 and labeled GM forms the basis for the fluorescence polarization assay. A free and fast-tumbling FITC labeled GM emits random light with respect to the plane of polarization plane of excited light, resulting in a lower polarization degree (mP) value. When GM is bound to HSP90, the complex tumble slower and the emitted light is polarized, resulting in a higher mP value. […] The assay buffer contained 20 mM HEPES (pH 7.3), 50 mM KCl, 1 mM DTT, 50 mM MgCl2, 20 mM Na2MoO4, 0.01% NP40 with 0.1 mg/ml bovine gamma-globulin.

IC50: 100 to 1000 nM
Compound: CC(C)(C)CNCCCn1c(Sc2cc3c(cc2I)OCO3)nc2c(N)nccc21 [Compound 56, 2-(6-iodobenzo[d][1,3]dioxol-5-ylthio)-1-(3-(neopentylamino)propyl)-1H-imidazo[4,5-c]pyridin-4-amine]
